Results on 9 compounds are retold here after patent publication US11464749B2, “Bismuth-thiol compositions and methods of use” (Microbion Corporation, priority 2018, dated 2022).

In experiment [1] the test system is Staphylococcus aureus (MRSA). Kind of experiment: Broth microdilution MIC (Example 11). (Broth dilution looks for growth in wells or tubes with falling amounts of substance.)
For another experiment, the system named is E. faecalis. The experiment is described as follows: Broth microdilution MIC (Example 11). To be noted: Enterococcus faecalis, VRE, VRE Lev^R Cip^R Ery^R.
In the next experiment the test system is Haemophilus influenzae. The experiment is described as follows: Broth microdilution MIC against Haemophilus influenzae clinical isolates. The following applies: for MIC: all evaluated H. influenzae strains, incl. BLNAR, range tested 64-0.06; for MIC50 / MIC90: Haemophilus influenzae.
In a further experiment the test system is Neisseria gonorrhoeae. Kind of experiment: Agar dilution MIC (Example 11). The experiment is classed as cell-based. The following applies: read-out: MIC. For orientation: In agar dilution the substance is mixed into plates at graded concentrations.
The next experiment concerns S. pyogenes. The experiment is described as follows: Broth microdilution MIC (Example 11). The following applies: Streptococcus pyogenes.
Experiment [2] has as its system vancomycin-intermediate Staphylococcus aureus (VISA). The experiment is described as follows: Broth microdilution MIC (Example 12). To be noted: Staphylococcus aureus, NRS13 / VISA, read-out: MIC values.
The test system of the next experiment is S. agalactiae. The experiment is described as follows: Broth microdilution MIC (Example 11). The following applies: Streptococcus agalactiae.
Another experiment concerns S. pneumoniae. Kind of experiment: Broth microdilution MIC (Example 11). To be noted: Streptococcus pneumoniae.
Setting [3] is: MRSA, S. aureus MMX 6311, MRSA Lev^R Cip^R CC^R Ery^R Ox^R.
Setting [4] is: ATCC29213|MRSA|MSSA, S. aureus MMX 101 (ATCC 29213), QC, MSSA.
Where [5] appears, read: MRSA, S. aureus MMX 5373, MRSA Lev^R Cip^R CC^R Ery^R Ox^R.
The mark [6] stands for this setting: MRSA, S. aureus MMX 9203, MRSA Lev^R Cip^R Ery^R Ox^R.
Where [7] appears, read: MRSA, S. aureus MMX 9204, MRSA Lev^R Cip^R Ery^R Ox^R.
[8] abbreviates: MRSA, S. aureus MMX 9205, MRSA Lev^R Cip^R CC^R Ery^R Ox^R.
Where [9] appears, read: S. agalactiae MMX 3741, ERY^R CC^R.
The mark [10] stands for this setting: S. agalactiae MMX 3743, ERY^R CC^R.
Setting [11] is: S. agalactiae MMX 4077, ERY^R CC^R.
Where [12] appears, read: S. agalactiae MMX 4079, ERY^R CC^R Pen^R MEM^R.
[13] abbreviates: S. agalactiae MMX 4086, ERY^R CC^R.
[14] abbreviates: ATCC49619, S. pneumoniae MMX 6837 (ATCC 49619), QC.
Setting [15] is: S. pneumoniae MMX 880, Lev^R SXT^R CC^R Ery^R Pen^R.
[16] abbreviates: S. pneumoniae MMX 937, Mem^R SXT^R CC^R Ery^R Pen^R.
Setting [17] is: S. pneumoniae MMX 3959, CC^R Ery^R.
Where [18] appears, read: S. pneumoniae MMX 5440, Mem^R SXT^R CC^R Ery^R Pen^R.
Setting [19] is: S. pneumoniae MMX 5445, Mem^R SXT^R CC^R Ery^R Pen^R.
Setting [20] is: S. pneumoniae MMX 8133, Mem^R SXT^R CC^R Ery^R Pen^R.

Values after ≈ are worked out from the molar mass of the structure shown. Read-outs that look alike come from different tables or passages of the source. Some results are limits rather than exact numbers.

For `Cc1onc(-c2ccccc2)c1C(=O)N[C@@H]1C(=O)N2[C@@H]1SC(C)(C)[C@@H]2C(=O)O` [Oxacillin], the figures for the MIC (in experiment [1] (setting [3]); with E. faecalis (E. faecalis MMX 8962)) were 32 µg/mL (≈ 79.7 µM) and 16 µg/mL (≈ 39.9 µM), respectively.

As for “bismuth-1,2-ethanedithiol, 2-mercaptopyridine N-oxide [BisEDT/PYR]”, the MIC in the experiment on Haemophilus influenzae was < 0.06 µg/mL.

Regarding “bismuth-2,3-butanedithiol, 2-mercaptopyridine N-oxide [BisBDT/PYR]”, the MIC in the experiment with Haemophilus influenzae is < 0.06 µg/mL.

In the experiment with Haemophilus influenzae, `CC[C@H]1OC(=O)[C@H](C)[C@@H](O[C@H]2C[C@@](C)(OC)[C@@H](O)[C@H](C)O2)[C@H](C)[C@@H](O[C@@H]2O[C@H](C)C[C@H](N(C)C)[C@H]2O)[C@](C)(O)C[C@@H](C)CN(C)[C@H](C)[C@@H](O)[C@]1(C)O` [azithromycin, Azithromycin] displayed an MIC50 of 2 µg/mL (≈ 2.67 µM) and an MIC90 of 2 µg/mL (≈ 2.67 µM).

In the experiment on Haemophilus influenzae, `CO/N=C(\C(=O)N[C@@H]1C(=O)N2C(C(=O)O)=C(COC(N)=O)CS[C@H]12)c1ccco1` [cefuroxime, Cefuroxime] gave an MIC50 of 4 µg/mL (≈ 9.43 µM) and an MIC90 of 16 µg/mL (≈ 37.7 µM).

`CO/N=C(\C(=O)N[C@@H]1C(=O)N2C(C(=O)O)=C(CSc3nc(=O)c(=O)[nH]n3C)CS[C@H]12)c1csc(N)n1` [Ceftriaxone]: the MIC in the experiment with Neisseria gonorrhoeae (ATCC49226, N. gonorrhoeae MMX 683 (ATCC 49226), QC) turned out to be 0.015 µg/mL (≈ 0.027 µM); in the experiment on Neisseria gonorrhoeae (N. gonorrhoeae MMX 6757, CTX NS) it was 1 µg/mL (≈ 1.8 µM); in the experiment with Neisseria gonorrhoeae (N. gonorrhoeae MMX 6791, CIP^R) it was 0.06 µg/mL (≈ 0.108 µM); with Neisseria gonorrhoeae (N. gonorrhoeae MMX 6792, CIP^R), 0.06 µg/mL (≈ 0.108 µM); in the experiment with Neisseria gonorrhoeae (N. gonorrhoeae MMX 6793, CIP^R) it was 0.03 µg/mL (≈ 0.0541 µM).

As for `CN[C@H](CC(C)C)C(=O)N[C@H]1C(=O)N[C@@H](CC(N)=O)C(=O)N[C@H]2C(=O)N[C@H]3C(=O)N[C@H](C(=O)N[C@H](C(=O)O)c4cc(O)cc(O)c4-c4cc3ccc4O)[C@H](O)c3ccc(c(Cl)c3)Oc3cc2cc(c3O[C@@H]2O[C@H](CO)[C@@H](O)[C@H](O)[C@H]2O[C@H]2C[C@](C)(N)[C@H](O)[C@H](C)O2)Oc2ccc(cc2Cl)[C@H]1O` [vancomycin], the MIC in the experiment on S. pyogenes came out at 0.5 µg/mL (≈ 0.345 µM); in experiment [2] it was 2 µg/mL (≈ 1.38 µM); in experiment [1] (setting [4]) it was 1 µg/mL (≈ 0.69 µM); in experiment [1] (setting [5]), 2 µg/mL (≈ 1.38 µM); in experiment [1] (setting [3]), 0.25 µg/mL (≈ 0.173 µM); in experiment [1] (setting [6]), 2 µg/mL (≈ 1.38 µM). In addition, the MIC in experiment [1] (setting [7]) worked out at 1 µg/mL (≈ 0.69 µM); in experiment [1] (setting [8]) it was 2 µg/mL (≈ 1.38 µM); with S. agalactiae (setting [9]), 0.5 µg/mL (≈ 0.345 µM); against S. agalactiae (setting [10]), 0.5 µg/mL (≈ 0.345 µM); in the experiment on S. agalactiae (setting [11]), 0.5 µg/mL (≈ 0.345 µM); against S. agalactiae (setting [12]), 2 µg/mL (≈ 1.38 µM). For the same compound, the MIC with S. agalactiae (setting [13]) came to 1 µg/mL (≈ 0.69 µM); against S. pneumoniae (setting [14]), 0.25 µg/mL (≈ 0.173 µM); in the experiment on S. pneumoniae (setting [15]) it was 0.5 µg/mL (≈ 0.345 µM); against S. pneumoniae (setting [16]), 0.5 µg/mL (≈ 0.345 µM); in the experiment with S. pneumoniae (setting [17]) it was 0.5 µg/mL (≈ 0.345 µM); in the experiment on S. pneumoniae (setting [18]) it was 0.25 µg/mL (≈ 0.173 µM). Further, the MIC against S. pneumoniae (setting [19]) and in the experiment with S. pneumoniae (setting [20]) was 0.25 µg/mL (≈ 0.173 µM) each time.

Consider `CC1(C)S[C@@H]2[C@H](NC(=O)[C@H](N)c3ccccc3)C(=O)N2[C@H]1C(=O)O` [ampicillin, Ampicillin], for which, in the experiment with Haemophilus influenzae, the MIC50 was 2 µg/mL (≈ 5.72 µM) and the MIC90 turned out to be 4 µg/mL (≈ 11.4 µM).

In the case of `CC[C@H]1OC(=O)[C@H](C)[C@@H](O[C@H]2C[C@@](C)(OC)[C@@H](O)[C@H](C)O2)[C@H](C)[C@@H](O[C@@H]2O[C@H](C)C[C@H](N(C)C)[C@H]2O)[C@](C)(O)C[C@@H](C)C(=O)[C@H](C)[C@@H](O)[C@]1(C)O` [Erythromycin], the MIC was > 8 µg/mL against S. pyogenes (S. pyogenes MMX 3068, Ery^R); > 8 µg/mL in the experiment on S. pyogenes (S. pyogenes MMX 3820, ERY^R CLI^R); > 8 µg/mL in the experiment on S. pyogenes (S. pyogenes MMX 3919, ERY^R); > 8 µg/mL with S. pyogenes (S. pyogenes MMX 3929, ERY^R CC^R); > 8 µg/mL in the experiment with S. pyogenes (S. pyogenes MMX 5091, ERY^R CC^R); 0.5 µg/mL (≈ 0.681 µM) in experiment [1] (setting [4]). In addition, the MIC is > 64 µg/mL in experiment [1] (setting [5]); > 64 µg/mL in experiment [1] (setting [3]); > 64 µg/mL in experiment [1] (setting [6]); > 64 µg/mL in experiment [1] (setting [7]); > 64 µg/mL in experiment [1] (setting [8]); 8 µg/mL (≈ 10.9 µM) in the experiment with S. agalactiae (setting [9]). For the same compound, the MIC against S. agalactiae (setting [10]) is > 8 µg/mL; in the experiment on S. agalactiae (setting [11]), > 8 µg/mL; with S. agalactiae (setting [12]), > 8 µg/mL; against S. agalactiae (setting [13]) it was > 8 µg/mL; against E. faecalis (E. faecalis MMX 8960), > 64 µg/mL; against E. faecalis (E. faecalis MMX 8961) it was > 64 µg/mL. Further, the MIC against E. faecalis (E. faecalis MMX 8962) was > 64 µg/mL; against S. pneumoniae (setting [14]), 0.03 µg/mL (≈ 0.0409 µM); in the experiment on S. pneumoniae (setting [15]), > 8 µg/mL; against S. pneumoniae (setting [16]) it was > 8 µg/mL; against S. pneumoniae (setting [17]), > 8 µg/mL; with S. pneumoniae (setting [18]), > 8 µg/mL. The MIC in the experiment on S. pneumoniae (setting [19]) and with S. pneumoniae (setting [20]) was > 8 µg/mL throughout.
